According to PubChem BioAssay AID1963838 (Molecular Pharmacology Branch, DTP, NCI, 2024):

Tested on: 855422-203-R-J1-PDC complex spheroid viability
Test: Anticancer human tumor 855422-203-R-J1-PDC patient-derived bladder carcinoma cell line growth inhibition [POLQ]
Settings: for IC50: curve of first compound; for viability, T/C: stronger effect = lower value; active = viability on the fitted dose curve at most 10% of control; inactive = the rest
Protocol: Multicellular complex tumor spheroid response to Polymerase (POL) inhibitors (novobiocin, ART-558, RP6685) in combination with a variety of drugs and investigational agents in selected tumor cell lines
The POL inhibitors (novobiocin, ART-558, and RP6685) were evaluated both individually and in combination with standard of care and investigational anticancer small molecules within a complex spheroid model of solid tumors. . Complex spheroids include a stromal component modeled by human endothelial cells (HUVEC) and fibroblasts modeled by human mesenchymal stem cells (MSCs). The concentration ranges selected for each drug and investigational agent were based upon clinically achievable concentrations if the clinical Cmax of the agent was known.
Compounds. The drugs and investigational agents: novobiocin (NSC847541), ART-558 (NSC835418), RP-6685 (NSC848927), peposertib (NSC802822), ceralasertib (NSC780249), elimusertib (NSC800525), camonsertib (NSC841442), AZD-1390 (NSC803789), olaparib (NSC753686), talazoparib (NSC767125), rucaparib (NSC756644), sotorasib (NSC818433), MRTX-1133 (NSC836407), SN-38 (NSC673596), topotecan (NSC609699), epotoside (NSC141540), doxorubicin (NSC123127), gemcitabine (NSC613327), 5-fluorouracil (NSC19893), paclitaxel (NSC125973), vemurafenib (NSC761431), MSA-2 (NSC828583), SN-011 (NSC837082), adavosertib (NSC754352), prexasertib (NSC758257), carboplatin (NSC241240) and oxaliplatin (NSC266046), were obtained from the National Cancer Institute (NCI) Developmental Therapeutics Program Chemical Repository (21). The FDA-approved anticancer drug set is available from the Developmental Therapeutics Program at https://dtp.cancer.gov/organization/dscb/obtaining/. […] The stock solutions were prepared in dimethyl sulfoxide (DMSO, Sigma-Aldrich, St. Louis, MO, cat. D2650), except for the platinum compounds which were prepared in saline (Quality Biological, Gaithersburg, MD, cat. 114-055-101), at 800-fold the tested concentration and stored at -70 degrees C prior to their use. All drugs and investigational agents were tested over a range starting from a high concentration at or near the clinical Cmax and decreasing in half-log increments. If the clinical Cmax for an agent had not been determined, the highest concentration tested was 10 microM, except for SN-38, which was tested at a high concentration of 1 microM.
Cell Culture. All cells were maintained in an incubator at 37 degrees C and 5% CO2 with 95% humidity. The PDC lines were cultured according to standard operating procedures established by the NCI PDMR (https://pdmr.cancer.gov). Table 3 of the manuscript, lists the cell lines along with the number of the three cell types plated to form the mct-spheroids and media for tumor cell growth. After thawing, all PDC lines, except 997537-175-T-J1-PDC and 415267-285-R-J2-PDC, were cultured in Matrigel-coated flasks prepared with a working solution of 1X Ham's F-12 nutrient mix, without supplementation (Thermo Fisher Scientific, cat. 11765054), 100 U/mL penicillin-streptomycin (Thermo Fisher Scientific, cat. 15140122), and 2.5% Matrigel (Corning Inc., Corning, NY, cat. 354248) for the first three passages. The two PDC lines 997537-175-T-J1-PDC and 415267-285-R-J2-PDC were cultured on uncoated flasks. The 857933-349-R-J2-PDC line was cultured in 6C/Colon 1B media containing advanced DMEM/F-12 (Thermo Fisher Scientific, cat. 12634028), 10 mM HEPES (Thermo Fisher Scientific, cat. 15630080), 1X GlutaMAX supplement (Thermo Fisher Scientific, cat. 35050061), 0.1 mg/mL primocin (InvivoGen, San Diego, CA, cat. ant-pm-2), 10% defined fetal bovine serum, heat inactivated (HyClone Laboratories Inc., Logan, UT, cat. SH30070.03HI), 50% L-WRN conditioned media (ATCC, cat. CRL-3276), 1.25 mM N-Acetyl-L-cysteine (Sigma-Aldrich, cat. A9165), 10 mM nicotinamide (Sigma-Aldrich, cat. N0636), 1X B-27 supplement (Thermo Fisher Scientific, cat. 17504044), 1X N-2 supplement (Thermo Fisher Scientific, cat. […]

[1] = second compound 0.0316 µM, first compound 0.0316 µM
[2] = second compound 0.0316 µM, first compound 0.1 µM
[3] = second compound 0.0316 µM, first compound 0.316 µM
[4] = second compound 0.0316 µM, first compound 1 µM
[5] = second compound 0.0316 µM, first compound 3.16 µM
[6] = second compound 0.0316 µM, first compound 10 µM
[7] = second compound 0.1 µM, first compound 0.0316 µM
[8] = second compound 0.1 µM, first compound 0.1 µM
[9] = second compound 0.1 µM, first compound 0.316 µM
[10] = second compound 0.1 µM, first compound 1 µM
[11] = second compound 0.1 µM, first compound 3.16 µM
[12] = second compound 0.1 µM, first compound 10 µM
[13] = second compound 0.316 µM, first compound 0.0316 µM
[14] = second compound 0.316 µM, first compound 0.1 µM
[15] = second compound 0.316 µM, first compound 0.316 µM
[16] = second compound 0.316 µM, first compound 1 µM
[17] = second compound 0.316 µM, first compound 3.16 µM
[18] = second compound 0.316 µM, first compound 10 µM
[19] = second compound 1 µM, first compound 0.0316 µM
[20] = second compound 1 µM, first compound 0.1 µM
[21] = second compound 1 µM, first compound 0.316 µM
[22] = second compound 1 µM, first compound 1 µM
[23] = second compound 1 µM, first compound 3.16 µM
[24] = second compound 1 µM, first compound 10 µM
[25] = second compound 3.16 µM, first compound 0.0316 µM
[26] = second compound 3.16 µM, first compound 0.1 µM
[27] = second compound 3.16 µM, first compound 0.316 µM
[28] = second compound 3.16 µM, first compound 1 µM
[29] = second compound 3.16 µM, first compound 3.16 µM
[30] = second compound 3.16 µM, first compound 10 µM
[31] = second compound 10 µM, first compound 0.0316 µM
[32] = second compound 10 µM, first compound 0.1 µM
[33] = second compound 10 µM, first compound 0.316 µM
[34] = second compound 10 µM, first compound 1 µM
[35] = second compound 10 µM, first compound 3.16 µM
[36] = second compound 10 µM, first compound 10 µM
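Note: spheroids exposed to compounds for seven days before readout.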

CCCS(=O)(=O)Nc1ccc(F)c(C(=O)c2c[nH]c3ncc(-c4ccc(Cl)cc4)cc23)c1F + Nc1ccc(C#CCN(C(=O)Cc2ncc(C(F)(F)F)cc2C(F)(F)F)c2ccc(F)cc2)nn1
5930 nM: IC50 (second compound 0.0316 µM)
5880 nM: IC50 (second compound 0.1 µM)
6020 nM: IC50 (second compound 3.16 µM)
inactive: viability, T/C [1] 101% | viability, T/C [2] 116% | viability, T/C [3] 92.3% | viability, T/C [4] 103% | viability, T/C [5] 112% | viability, T/C [7] 99% | viability, T/C [8] 117% | viability, T/C [9] 109% | viability, T/C [10] 107% | viability, T/C [11] 103% | viability, T/C [13] 116% | viability, T/C [14] 113% | viability, T/C [15] 93.1% | viability, T/C [16] 106% | viability, T/C [17] 109% | viability, T/C [19] 106% | viability, T/C [20] 106% | viability, T/C [21] 96.2% | viability, T/C [22] 106% | viability, T/C [23] 109% | viability, T/C [25] 93.5% | viability, T/C [26] 108% | viability, T/C [27] 101% | viability, T/C [28] 101% | viability, T/C [29] 103% | viability, T/C [31] 94% | viability, T/C [32] 102% | viability, T/C [33] 101% | viability, T/C [34] 112% | viability, T/C [35] 99.8%
5890 nM: IC50 (second compound 10 µM)
5980 nM: IC50 (second compound 1 µM)
6200 nM: IC50 (second compound 0.316 µM)
active: viability, T/C [6] 4.15% | viability, T/C [12] 4.49% | viability, T/C [18] 9.19% | viability, T/C [24] 5.86% | viability, T/C [30] 9.79% | viability, T/C [36] 7.62%

COc1cccc(OCCCN)c1-c1cc(Nc2cnc(C#N)cn2)n[nH]1 + Nc1ccc(C#CCN(C(=O)Cc2ncc(C(F)(F)F)cc2C(F)(F)F)c2ccc(F)cc2)nn1
inactive: viability, T/C (second compound 0.0316 µM, first compound 0.00316 µM) 111% | viability, T/C (second compound 0.0316 µM, first compound 0.01 µM) 197% | viability, T/C [1] 36.6% | viability, T/C (second compound 0.1 µM, first compound 0.00316 µM) 106% | viability, T/C (second compound 0.1 µM, first compound 0.01 µM) 196% | viability, T/C [7] 50.3% | viability, T/C (second compound 0.316 µM, first compound 0.00316 µM) 113% | viability, T/C (second compound 0.316 µM, first compound 0.01 µM) 176% | viability, T/C [13] 49.8% | viability, T/C (second compound 1 µM, first compound 0.00316 µM) 105% | viability, T/C (second compound 1 µM, first compound 0.01 µM) 148% | viability, T/C [19] 31.3% | viability, T/C (second compound 3.16 µM, first compound 0.00316 µM) 107% | viability, T/C (second compound 3.16 µM, first compound 0.01 µM) 178% | viability, T/C [25] 21.6% | viability, T/C (second compound 10 µM, first compound 0.00316 µM) 100% | viability, T/C (second compound 10 µM, first compound 0.01 µM) 161% | viability, T/C [31] 24.6%
active: viability, T/C [2] 11.9% | viability, T/C [3] 7.2% | viability, T/C [4] 6.13% | viability, T/C [8] 10.7% | viability, T/C [9] 6.14% | viability, T/C [10] 5.3% | viability, T/C [14] 11.1% | viability, T/C [15] 7.07% | viability, T/C [16] 6.94% | viability, T/C [20] 9.99% | viability, T/C [21] 7.86% | viability, T/C [22] 7.5% | viability, T/C [26] 15.9% | viability, T/C [27] 7.71% | viability, T/C [28] 6.25% | viability, T/C [32] 8% | viability, T/C [33] 9.72% | viability, T/C [34] 7.4%
27.7 nM: IC50 (second compound 0.0316 µM)
31.5 nM: IC50 (second compound 0.316 µM)
24 nM: IC50 (second compound 10 µM)
24.1 nM: IC50 (second compound 3.16 µM)
31.9 nM: IC50 (second compound 0.1 µM)
25.2 nM: IC50 (second compound 1 µM)

O=c1[nH]cc(F)c(=O)[nH]1 + Nc1ccc(C#CCN(C(=O)Cc2ncc(C(F)(F)F)cc2C(F)(F)F)c2ccc(F)cc2)nn1
inactive: viability, T/C [1] 118% | viability, T/C [2] 110% | viability, T/C [3] 160% | viability, T/C [4] 65.3% | viability, T/C [5] 47.4% | viability, T/C [6] 43.9% | viability, T/C [7] 90.8% | viability, T/C [8] 111% | viability, T/C [9] 142% | viability, T/C [10] 66.6% | viability, T/C [11] 46.6% | viability, T/C [12] 37.1% | viability, T/C [13] 118% | viability, T/C [14] 122% | viability, T/C [15] 124% | viability, T/C [16] 63.2% | viability, T/C [17] 54% | viability, T/C [18] 44.8% | viability, T/C [19] 95.3% | viability, T/C [20] 112% | viability, T/C [21] 99.6% | viability, T/C [22] 68.5% | viability, T/C [23] 46.2% | viability, T/C [24] 40% | viability, T/C [25] 103% | viability, T/C [26] 107% | viability, T/C [27] 104% | viability, T/C [28] 60.6% | viability, T/C [29] 53.1% | viability, T/C [30] 46.2% | viability, T/C [31] 96.9% | viability, T/C [32] 105% | viability, T/C [33] 99.9% | viability, T/C [34] 66.8% | viability, T/C [35] 53.1% | viability, T/C [36] 40.8%
3000 nM: IC50 (second compound 0.316 µM)
3060 nM: IC50 (second compound 3.16 µM)
2450 nM: IC50 (second compound 0.0316 µM)
2420 nM: IC50 (second compound 1 µM)
2160 nM: IC50 (second compound 0.1 µM)
2750 nM: IC50 (second compound 10 µM)
